Patent US12121522B2, “Methods of treating cancer with an mTOR inhibitor” (Revolution Medicines, Inc., priority 2022, dated 2024)

How the values were obtained:
mucositis/stomatitis = test: Mouthwash prophylaxis of mucositis in patients on RMC-5552; assay type: in vivo, human; settings: RMC-5552 8 to 12 mg IV weekly; without TM N=20, with TM N=7
Procedure: Table 9 presents data from all patients (N=27) treated either with dexamethasone mouthwash alone, or dexamethasone mouthwash plus tacrolimus mouthwash at 8 mg (N=16), 10 mg (N=8), and 12 mg (N=3) IV QW. Median time on treatment (min, max) was 2.6 months for patients treated at 8 mg IV QW with dexamethasone mouthwash alone (N=13), 1.2 months for patients treated at 8 mg IV QW with dexamethasone mouthwash plus tacrolimus mouthwash (N=3), 0.9 months for patients treated at 10 mg IV QW with dexamethasone mouthwash alone (N=5), 2.0 months for patients treated at 10 mg IV QW with dexamethasone mouthwash plus tacrolimus mouthwash (N=3), 9.1 months for patients treated at 12 mg IV QW with dexamethasone mouthwash alone (N=2), and 0.4 months for patients treated at 12 mg IV QW with dexamethasone mouthwash plus tacrolimus mouthwash (N=1). […] Among all dose levels, the frequency of Grade 3 or worse events, frequency and severity of mucositis, and frequency of AEs leading to dose modification were lower in those patients treated with tacrolimus mouthwash.
Subjects received dexamethasone alone or dexamethasone plus tacrolimus mouthwash(es). […] At baseline (C1D1 predose), subjects rinse with the mouthwash(es) once at least 15 minutes prior to the first dose of study intervention. […]

ctDNA (mean VAF) = test: ctDNA molecular response (Guardant Health algorithm); assay type: in vivo, human
Procedure: The mean±SEM of fractional change in mean VAF from C1D1 to C3D1 was determined by the Guardant Health Molecular Response Algorithm. […] Change in ctDNA is presented as mean±SEM of % change in mean VAF from C1D1 to C3D1. […] The results presented in FIGS. 8 and 9, supported by preclinical data, indicate that the dose range of 6 mg to 12 mg represents a “steep” dose-exposure-response relationship.

`CO[C@H]1C[C@@H]2CC[C@@H](C)[C@@](O)(O2)C(=O)C(=O)N2CCCC[C@H]2C(=O)O[C@H]([C@H](C)C[C@@H]2CC[C@@H](OC(=O)NCCOCCOCCOCCOCCOCCOCCOCCOCCC(=O)N3CCc4cc(Cn5nc(-c6ccc7oc(N)nc7c6)c6c(N)ncnc65)ccc4C3)[C@H](OC)C2)C[C@@H](O)[C@H](C)/C=C(\C)[C@@H](O)[C@@H](OC)C(=O)[C@H](C)C[C@H](C)/C=C/C=C/C=C/1C` [RMC-5552] was tested, and the “rate of grade 3 mucositis/stomatitis” value (mucositis/stomatitis) was 15%, the rate of mucositis/stomatitis (mucositis/stomatitis) was 75% and the “decrease in VAF” value (ctDNA (mean VAF); 67F NSCLC STK11, TSC2, KRAS L19F, 8 mg QW) was “reduction in lesion; 31%”. The “MR (molecular response)” value (ctDNA (mean VAF); endometrial PIK3CA, PTEN, TSC2, 8 mg QW) was “SD; MR 64%”, the “subjects with molecular response” value (ctDNA (mean VAF); of 6 subjects with SD as best response and a pathogenic mTOR pathway variant) was 3 and the molecular response (ctDNA (mean VAF); one subject on 12 mg initial dose) was “effective molecular complete response”. The “MR (molecular response)” value (ctDNA (mean VAF); uterine CaSarc TSC1 LOF, 10 mg single dose, 6 mg QW) was 91%.
